Laboratory results taken from article PMC5774136, “Alarm pheromone and kairomone detection via bitter taste receptors in the mouse Grueneberg ganglion” (BMC Biology, 2018).

Legend:
Experiment in all cases: Fura-2 calcium imaging, transfected HEK cells
Assay type in all cases: cell-based
TAS2R143 [1] = target: T1, TAS2R143 (Mus musculus, UniProt Q7TQB9); settings: 500 uM ligand; agonist; Galpha16-gustducin chimera co-expressed
T1 construct: N-terminal tag of first 39 residues of bovine rhodopsin; pcDNA3.1(+); HEK 293 cells (ATCC CRL-1573); co-expressed human Galpha16 / mouse gustducin C-terminal 44 chimera
T1 sequence (Q7TQB9 1-293): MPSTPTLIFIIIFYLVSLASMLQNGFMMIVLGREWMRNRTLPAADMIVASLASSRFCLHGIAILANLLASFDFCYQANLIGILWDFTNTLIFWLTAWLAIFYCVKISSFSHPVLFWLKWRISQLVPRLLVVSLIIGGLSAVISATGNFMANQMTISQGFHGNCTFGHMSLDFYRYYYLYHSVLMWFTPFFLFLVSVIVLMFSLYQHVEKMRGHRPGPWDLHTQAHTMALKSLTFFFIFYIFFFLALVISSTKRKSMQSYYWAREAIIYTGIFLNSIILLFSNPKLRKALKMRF

TAS2R115 = target: T2, TAS2R115 (Mus musculus, UniProt Q7M719); settings: 100 uM ligand; weak agonist; Galpha16-gustducin chimera co-expressed
T2 construct: N-terminal tag of first 39 residues of bovine rhodopsin; pcDNA3.1(+); HEK 293 cells (ATCC CRL-1573); co-expressed human Galpha16 / mouse gustducin C-terminal 44 chimera
T2 sequence (Q7M719 1-310): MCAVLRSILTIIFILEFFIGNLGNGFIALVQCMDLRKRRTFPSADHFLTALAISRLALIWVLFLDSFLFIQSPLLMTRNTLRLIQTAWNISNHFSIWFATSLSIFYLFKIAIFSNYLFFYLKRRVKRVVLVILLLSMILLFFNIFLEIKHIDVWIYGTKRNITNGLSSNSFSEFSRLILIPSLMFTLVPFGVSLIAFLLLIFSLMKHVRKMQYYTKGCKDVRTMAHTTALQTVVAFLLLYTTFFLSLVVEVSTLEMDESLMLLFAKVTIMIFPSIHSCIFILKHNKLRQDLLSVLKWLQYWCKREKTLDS

TAS2R143 [2] = target: T1, TAS2R143; settings: 100 uM ligand; agonist; Galpha16-gustducin chimera co-expressed
TAS2R131 = target: T3, TAS2R131 (Mus musculus, UniProt Q7M708); settings: 100 uM ligand; weak agonist; Galpha16-gustducin chimera co-expressed
T3 construct: N-terminal tag of first 39 residues of bovine rhodopsin; pcDNA3.1(+); HEK 293 cells (ATCC CRL-1573); co-expressed human Galpha16 / mouse gustducin C-terminal 44 chimera
T3 sequence (Q7M708 1-310): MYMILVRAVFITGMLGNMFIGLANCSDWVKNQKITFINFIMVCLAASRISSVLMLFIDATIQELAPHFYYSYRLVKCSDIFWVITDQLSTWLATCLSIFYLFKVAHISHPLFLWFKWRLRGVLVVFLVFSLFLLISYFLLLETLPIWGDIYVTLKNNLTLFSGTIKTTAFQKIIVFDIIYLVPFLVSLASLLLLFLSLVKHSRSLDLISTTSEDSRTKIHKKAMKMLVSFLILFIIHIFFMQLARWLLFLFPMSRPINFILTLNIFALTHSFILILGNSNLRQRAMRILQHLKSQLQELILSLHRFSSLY

Row | % of transfected cells responding at 500 uM (TAS2R143 [1]) | % of transfected cells responding at 100 uM (TAS2R115) | % of transfected cells responding at 100 uM (TAS2R143 [2]) | % of transfected cells responding at 100 uM (TAS2R131) | Molecule
1 | 51% |  |  |  | 2,4,5-trimethylthiazoline [TMT]
2 |  | ~ 5% | 14% | ~ 5% | CCc1cnccn1 [2-EP, 2-ethylpyrazine]
3 |  |  | 47% |  | CCCC1CCS1 (stereo not drawn) [2-PT, 2-propylthietane]
4 |  |  | 13% |  | CCC(C)C1=NCCS1 (stereo not drawn) [SBT, 2-sec-butylthiazoline]
